What all share (assay type): in vivo
Experiment [1] relates to Echinochloa crus-galli (ECHCG). In words: Post-emergence biological efficacy, glasshouse pot test. The following applies: 312 h, evaluated after 13 days (100=total damage; 0=no damage), read-out: Percentage damage caused to weed species, ECHCG; for pest or weed control at 1000 g/ha: post-emergence, 1,000 g/ha. A digest of the protocol:
(§1)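 Scored 13 days after spraying on a 0 (no damage) to 100 (total damage) scale. Treatment was a post-emergence spray at 1000 or 250 g/ha, from acetone/water 50:50 plus 0.5% Tween 20, onto 8-day-old plants in soil pots. Growth at 24/16° C, 14 h photoperiod, 65% humidity, watered twice daily.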

Experiment [2] deals with Solanum nigrum (SOLNI). The experiment is described as above. The settings on record: 312 h, evaluated after 13 days (100=total damage; 0=no damage), read-out: Percentage damage caused to weed species, SOLNI; for pest or weed control at 1000 g/ha: post-emergence, 1,000 g/ha. A digest of the protocol:
as §1

For experiment [3], the system named is Ipomea hederaceae (IPOHE). The description is as above. The settings on record: Ipomoea hederacea, 312 h, evaluated after 13 days (100=total damage; 0=no damage), read-out: Percentage damage caused to weed species, IPOHE; for pest or weed control at 1000 g/ha: post-emergence, 1,000 g/ha. An outline of the steps:
as §1

For experiment [4], the system named is Amaranthus retoflexus (AMARE). Described as above. The following applies: Amaranthus retroflexus, 312 h, evaluated after 13 days (100=total damage; 0=no damage), read-out: Percentage damage caused to weed species, AMARE; for pest or weed control at 1000 g/ha: post-emergence, 1,000 g/ha. A digest of the protocol: as §1
The test system of experiment [5] is Setaria faberi (SETFA). Described as above. The following applies: 312 h, evaluated after 13 days (100=total damage; 0=no damage), read-out: Percentage damage caused to weed species, SETFA; for pest or weed control at 1000 g/ha: post-emergence, 1,000 g/ha. A digest of the protocol: as §1
In experiment [6] the test system is Alopecurus myosuroides (ALOMY). Described as above. The settings on record: 312 h, evaluated after 13 days (100=total damage; 0=no damage), read-out: Percentage damage caused to weed species, ALOMY; for pest or weed control at 1000 g/ha: post-emergence, 1,000 g/ha. A digest of the protocol: as §1
For experiment [7], the system named is Echinochloa crus-galli (ECHCG). In words: Pre-emergence biological efficacy, glasshouse pot test. The settings on record: 312 h, evaluated after 13 days (100=total damage; 0=no damage), read-out: Percentage damage ECHCG; for pest or weed control at 1000 g/ha: pre-emergence, 1,000 g/ha. An outline of the steps: (§2)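 Standard soil, pots, sown then sprayed at day 1 with 1000 or 250 g/ha test compound. Glasshouse: 24/16 °C, 14 h photoperiod, 65% humidity, twice-daily watering. Evaluation day 13, 0–100 damage score.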

The subject of experiment [8] is Solanum nigrum (SOLNI). The experiment is described as above. The settings on record: 312 h, evaluated after 13 days (100=total damage; 0=no damage), read-out: Percentage damage SOLNI; for pest or weed control at 1000 g/ha: pre-emergence, 1,000 g/ha. A digest of the protocol: as §2
For experiment [9], the system named is Ipomea hederaceae (IPOHE). Described as above. The settings on record: Ipomoea hederacea, 312 h, evaluated after 13 days (100=total damage; 0=no damage), read-out: Percentage damage IPOHE; for pest or weed control at 1000 g/ha: pre-emergence, 1,000 g/ha. A digest of the protocol:
as §2

Experiment [10] concerns Amaranthus retoflexus (AMARE). Described as above. The settings on record: Amaranthus retroflexus, 312 h, evaluated after 13 days (100=total damage; 0=no damage), read-out: Percentage damage AMARE; for pest or weed control at 1000 g/ha: pre-emergence, 1,000 g/ha. A digest of the protocol:
as §2

The test system of experiment [11] is Setaria faberi (SETFA). Described as above. The settings on record: 312 h, evaluated after 13 days (100=total damage; 0=no damage), read-out: Percentage damage SETFA; for pest or weed control at 1000 g/ha: pre-emergence, 1,000 g/ha. An outline of the steps: as §2
The test system of experiment [12] is Alopecurus myosuroides (ALOMY). The description is as above. The following applies: 312 h, evaluated after 13 days (100=total damage; 0=no damage), read-out: Percentage damage ALOMY; for pest or weed control at 1000 g/ha: pre-emergence, 1,000 g/ha. A digest of the protocol:
as §2

For the molecule `CCCCCc1ccc(C(C)Nc2nc(C3CC3)nc(C(=O)OC)c2Cl)cc1` (stereo not drawn) [Compound 4-178, 5-Chloro-2-cyclopropyl-6-methoxycarbonyl-4-[1-(4-n-pentyl-phenyl)ethylamino]-pyrimidine], the pest or weed control at 1000 g/ha in experiment [1] is 20%; in the experiment with Solanum nigrum (SOLNI) [2], 80%; in experiment [3], 70%; in [4] it was 70%; in the experiment with Setaria faberi (SETFA) [5], 30%; in [6], 20%. For the same molecule, the pest or weed control at 1000 g/ha came out at 10% in experiment [7]; 30% in the experiment on Solanum nigrum (SOLNI) [8]; 40% in experiment [9]; 60% in [10]; 10% in the experiment with Setaria faberi (SETFA) [11]; 10% in [12].
Turning to `COC(=O)c1nc(C2CC2)nc(NC(C)c2cccc(C(F)(F)F)c2)c1Cl` (stereo not drawn) [Compound 4-179, 5-Chloro-2-cyclopropyl-6-methoxycarbonyl-4-[1-(3-trifluoro-methylphenyl)ethyl-amino]pyrimidine], the pest or weed control at 250 g/ha stood at 40% in [1] (post-emergence, 250 g/ha); 80% with Solanum nigrum (SOLNI) [2] (post-emergence, 250 g/ha); 60% in [3] (post-emergence, 250 g/ha); 70% in experiment [4] (post-emergence, 250 g/ha); 50% in the experiment on Setaria faberi (SETFA) [5] (post-emergence, 250 g/ha); 30% in [6] (post-emergence, 250 g/ha). In addition, the pest or weed control at 250 g/ha in experiment [7] (pre-emergence, 250 g/ha) is 0%; in the experiment with Solanum nigrum (SOLNI) [8] (pre-emergence, 250 g/ha) it was 0%; in experiment [9] (pre-emergence, 250 g/ha) it was 0%; in [10] (pre-emergence, 250 g/ha) it was 50%; in the experiment with Setaria faberi (SETFA) [11] (pre-emergence, 250 g/ha) it was 0%; in [12] (pre-emergence, 250 g/ha) it was 0%.
For `COC(=O)c1nc(C2CC2)nc(NC(C)c2ccc(C)cc2C)c1Cl` (stereo not drawn) [Compound 4-183, 5-Chloro-2-cyclopropyl-4-[1-(2,4-dimethyl-phenyl)ethylamino]-6-methoxycarbonyl-pyrimidine], the pest or weed control at 1000 g/ha was determined as 10% in [1]; 40% in the experiment on Solanum nigrum (SOLNI) [2]; 60% in [3]; 70% in [4]; 20% in the experiment on Setaria faberi (SETFA) [5]; 10% in experiment [6]. The pest or weed control at 1000 g/ha in experiment [7] worked out at 0%; with Solanum nigrum (SOLNI) [8] it was 0%; in experiment [9], 20%; in [10], 30%; in the experiment on Setaria faberi (SETFA) [11], 0%; in experiment [12], 0%.
Take `COC(=O)c1nc(C2CC2)nc(NC(C)(C)c2ccccc2)c1Cl` [Compound 4-189, 5-Chloro-2-cyclopropyl-6-methoxycarbonyl-4-(1-methyl-1-phenyl-ethylamino)-pyrimidine]: the pest or weed control at 1000 g/ha is 0% in experiment [1]; 90% with Solanum nigrum (SOLNI) [2]; 100% in experiment [3]; 100% in experiment [4]; 50% in the experiment with Setaria faberi (SETFA) [5]; 20% in [6]. The pest or weed control at 1000 g/ha in [7] was determined as 0%; in the experiment with Solanum nigrum (SOLNI) [8], 50%; in experiment [9], 40%; in experiment [10], 60%; in the experiment on Setaria faberi (SETFA) [11], 0%; in experiment [12], 20%.
In the case of `CCC(Nc1nc(C2CC2)nc(C(=O)OC)c1Cl)c1ccccc1` (stereo not drawn) [Compound 4-194, 5-Chloro-2-cyclopropyl-6-methoxycarbonyl-4-(1-phenylpropyl-amino)pyrimidine], the pest or weed control at 1000 g/ha in [1] was determined as 60%; in the experiment on Solanum nigrum (SOLNI) [2], 100%; in experiment [3], 100%; in [4], 100%; in the experiment on Setaria faberi (SETFA) [5], 80%; in experiment [6], 10%. Also, the pest or weed control at 1000 g/ha was determined as 20% in [7]; 60% in the experiment with Solanum nigrum (SOLNI) [8]; 90% in experiment [9]; 100% in experiment [10]; 10% with Setaria faberi (SETFA) [11]; 10% in [12].
For the molecule `C=CC(Nc1nc(C2CC2)nc(C(=O)OC)c1Cl)c1ccccc1` (stereo not drawn) [Compound 4-197, 5-Chloro-2-cyclopropyl-6-methoxycarbonyl-4-(1-phenylprop-2-en-1-yl-amino)-pyrimidine], the pest or weed control at 1000 g/ha in experiment [1] amounted to 70%; in the experiment on Solanum nigrum (SOLNI) [2], 90%; in experiment [3] it was 100%; in experiment [4], 100%; with Setaria faberi (SETFA) [5], 80%; in experiment [6], 40%. For the same molecule, the pest or weed control at 1000 g/ha is 40% in [7]; 90% in the experiment on Solanum nigrum (SOLNI) [8]; 100% in experiment [9]; 90% in experiment [10]; 20% in the experiment with Setaria faberi (SETFA) [11]; 20% in [12].
For the molecule `C=CCC(Nc1nc(C2CC2)nc(C(=O)OC)c1Cl)c1ccc(Cl)cc1` (stereo not drawn) [Compound 4-198, 5-Chloro-4-[1-(4-chlorophenyl)but-3-en-1-yl-amino]-2-cyclopropyl-6-methoxycarbonyl-pyrimidine], the pest or weed control at 1000 g/ha in experiment [1] turned out to be 0%; in the experiment on Solanum nigrum (SOLNI) [2], 30%; in experiment [3], 60%; in experiment [4] it was 40%; in the experiment on Setaria faberi (SETFA) [5], 40%; in experiment [6], 20%. Also, the pest or weed control at 1000 g/ha was found to be 0% in experiment [7]; 20% with Solanum nigrum (SOLNI) [8]; 70% in experiment [9]; 30% in [10]; 0% in the experiment with Setaria faberi (SETFA) [11]; 0% in experiment [12].

For the origin of these results see patent US20110086759A1, “CHEMICAL COMPOUNDS” (SYNGENTA CROP PROTECTION, INC., priority 2007, published 2011).
